Data taken from patent publication US7964531B2, “3-phenoxy-4-pyridazinol derivatives and herbicidal composition containing the same” (Mitsui Chemicals Agro, Inc., priority 2001, dated 2011).

Tests used:
[1] = tested on: transplanted paddy-field rice; assay: Test Example 4: crop injury against transplanted paddy-field rice; type: in vivo; details: after 25 days
Experimental: (§1) Paddy filed soil was filled in 1/5000 are Wagner pot, seeds of barnyardgrass (Echinochloa oryzicola Vasing.), Scirpus joncoides and annual broad-leaved weeds (Lindernia spp. and Rotala indica) which are awaken from dormancy were mixed at the surface layer of 1 cm. Also, tubers of Cyperus serotinus, Sagittaria pygmaea and Eleocharis kuroguwai which are awaken from dormancy were planted, and further seedlings of paddy-field rice at 2.2-leaf stage were transplanted and they were grown under the flooded condition in a greenhouse. After 3 days from the transplanting, a predetermined chemical dosage of the wettable powder prepared in accordance with Preparation example 5 was diluted with water, and applied to the pot. After 25 days, herbicidal effects and crop injury against transplanted paddy-field rice were judged according to the following judgment standard, and the results were shown in Table 5. Incidentally, “-” in the table means a composition containing no effective ingredient.
(§2) Judgment Standard • 0: Growth-inhibition rate; 0 to 15% • 1: Growth inhibition rate; 16 to 35% • 2: Growth inhibition rate; 36 to 55% • 3: Growth inhibition rate; 56 to 75% • 4: Growth inhibition rate; […] • 5: Growth inhibition rate; 96 to 100%.

Eleocharis kuroguwai = assay: Test Example 4: herbicidal effects of mixed wettable powder, paddy-field pot test; type: in vivo; details: after 25 days
Experimental: as §1, §2

[2] = tested on: barnyardgrass (Echinochloa oryzicola Vasing.); assay: as above; type: in vivo; details: after 25 days
Experimental: as §1, §2

Sagittaria pygmaea = assay: as above; type: in vivo; details: after 25 days
Experimental: as §1, §2

[3] = tested on: annual broad-leaved weeds (Lindernia spp. and Rotala indica); assay: as above; type: in vivo; details: after 25 days
Experimental: as §1, §2

Cyperus serotinus [4] = assay: as above; type: in vivo; details: after 25 days
Experimental: as §1, §2

Scirpus joncoides [5] = assay: as above; type: in vivo; details: after 25 days
Experimental: as §1, §2

[6] = tested on: transplanted paddy-field rice; assay: Test Example 1: crop injury against transplanted paddy-field rice; type: in vivo; details: wettable powder applied 3 days after transplanting, judged after 25 days
In short: (§3)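 Paddy-soil pots sown with weed seeds, germinated Cyperus serotinus tubers and 2.2-leaf rice transplants, kept flooded in a greenhouse. Wettable powder diluted in water applied at set dosage 3 days after transplanting. Weed control and rice injury scored 25 days later on a 0-5 growth-inhibition scale.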

[7] = tested on: annual broad-leaved weeds (Lindernia spp., Rotala indica); assay: Test Example 1: herbicidal effects, paddy-field pot test; type: in vivo; details: wettable powder applied 3 days after transplanting, judged after 25 days
In short: as §3

[8] = tested on: barnyardgrass (Echinochloa oryzicola Vasing.); assay: as above; type: in vivo; details: wettable powder applied 3 days after transplanting, judged after 25 days
In short: as §3

Cyperus serotinus [9] = assay: as above; type: in vivo; details: wettable powder applied 3 days after transplanting, judged after 25 days
In short: as §3

Scirpus joncoides [10] = assay: as above; type: in vivo; details: wettable powder applied 3 days after transplanting, judged after 25 days
In short: as §3

[11] = derivative 5 g/a, no second compound
[12] = derivative 10 g/a, no second compound

SMILES: Cc1ccc(S(=O)(=O)Oc2c(C(=O)c3ccc(Cl)cc3Cl)c(C)nn2C)cc1 [Compound A, 4-(2,4-dichlorobenzoyl)-1,3-dimethyl-5-pyrazolyl-p-toluenesulfonate, reference compound]
- Crop injury against transplanted rice ([1]; second compound alone 5 g/a): 0 (Growth-inhibition rate; 0 to 15%)
- Crop injury against transplanted rice ([1]; second compound alone 30 g/a): 0 (Growth-inhibition rate; 0 to 15%)
- Herbicidal effects Eleocharis kuroguwai (Eleocharis kuroguwai; second compound alone 5 g/a): 0 (Growth-inhibition rate; 0 to 15%)
- Herbicidal effects Eleocharis kuroguwai (Eleocharis kuroguwai; second compound alone 30 g/a): 2 (Growth inhibition rate; 36 to 55%)
- Herbicidal effects Barnyard grass ([2]; second compound alone 5 g/a): 3 (Growth inhibition rate; 56 to 75%)
- Herbicidal effects Barnyard grass ([2]; second compound alone 30 g/a): 5 (Growth inhibition rate; 96 to 100%)
- Herbicidal effects Sagittaria pygmaea (Sagittaria pygmaea; second compound alone 5 g/a): 4 (Growth inhibition rate; 7.6 to 95%)
- Herbicidal effects Sagittaria pygmaea (Sagittaria pygmaea; second compound alone 30 g/a): 5 (Growth inhibition rate; 96 to 100%)
- Herbicidal effects Broad leaf ([3]; second compound alone 5 g/a): 4 (Growth inhibition rate; 7.6 to 95%)
- Herbicidal effects Broad leaf ([3]; second compound alone 30 g/a): 5 (Growth inhibition rate; 96 to 100%)
- Herbicidal effects Cyperus serotinus (Cyperus serotinus [4]; second compound alone 5 g/a): 2 (Growth inhibition rate; 36 to 55%)
- Herbicidal effects Cyperus serotinus (Cyperus serotinus [4]; second compound alone 30 g/a): 4 (Growth inhibition rate; 7.6 to 95%)
- Herbicidal effects Scirpus joncoides (Scirpus joncoides [5]; second compound alone 5 g/a): 3 (Growth inhibition rate; 56 to 75%)
- Herbicidal effects Scirpus joncoides (Scirpus joncoides [5]; second compound alone 30 g/a): 4 (Growth inhibition rate; 7.6 to 95%)

SMILES: Cc1nn(C)c(OCC(=O)c2ccccc2)c1C(=O)c1ccc(Cl)cc1Cl [Compound B, 2-[4-(2,4-dichlorobenzoyl)-1,3-dimethylpyrazol-5-yloxy]acetophenone, reference compound]
- Crop injury against transplanted rice ([1]; second compound alone 5 g/a): 0 (Growth-inhibition rate; 0 to 15%)
- Crop injury against transplanted rice ([1]; second compound alone 30 g/a): 0 (Growth-inhibition rate; 0 to 15%)
- Herbicidal effects Eleocharis kuroguwai (Eleocharis kuroguwai; second compound alone 5 g/a): 0 (Growth-inhibition rate; 0 to 15%)
- Herbicidal effects Eleocharis kuroguwai (Eleocharis kuroguwai; second compound alone 30 g/a): 2 (Growth inhibition rate; 36 to 55%)
- Herbicidal effects Barnyard grass ([2]; second compound alone 5 g/a): 3 (Growth inhibition rate; 56 to 75%)
- Herbicidal effects Barnyard grass ([2]; second compound alone 30 g/a): 5 (Growth inhibition rate; 96 to 100%)
- Herbicidal effects Sagittaria pygmaea (Sagittaria pygmaea; second compound alone 5 g/a): 4 (Growth inhibition rate; 7.6 to 95%)
- Herbicidal effects Sagittaria pygmaea (Sagittaria pygmaea; second compound alone 30 g/a): 5 (Growth inhibition rate; 96 to 100%)
- Herbicidal effects Broad leaf ([3]; second compound alone 5 g/a): 4 (Growth inhibition rate; 7.6 to 95%)
- Herbicidal effects Broad leaf ([3]; second compound alone 30 g/a): 5 (Growth inhibition rate; 96 to 100%)
- Herbicidal effects Cyperus serotinus (Cyperus serotinus [4]; second compound alone 5 g/a): 2 (Growth inhibition rate; 36 to 55%)
- Herbicidal effects Cyperus serotinus (Cyperus serotinus [4]; second compound alone 30 g/a): 4 (Growth inhibition rate; 7.6 to 95%)
- Herbicidal effects Scirpus joncoides (Scirpus joncoides [5]; second compound alone 5 g/a): 3 (Growth inhibition rate; 56 to 75%)
- Herbicidal effects Scirpus joncoides (Scirpus joncoides [5]; second compound alone 30 g/a): 4 (Growth inhibition rate; 7.6 to 95%)

SMILES: Cc1ccc(C(=O)COc2c(C(=O)c3c(Cl)ccc(C)c3Cl)c(C)nn2C)cc1 [Compound C, 2-[4-(2,4-dichloro-m-toluoyl)-1,3-dimethylpyrazol-5-yloxy]-4′-methyl-acetophenone, reference compound]
- Crop injury against transplanted rice ([1]; second compound alone 5 g/a): 0 (Growth-inhibition rate; 0 to 15%)
- Crop injury against transplanted rice ([1]; second compound alone 30 g/a): 0 (Growth-inhibition rate; 0 to 15%)
- Herbicidal effects Eleocharis kuroguwai (Eleocharis kuroguwai; second compound alone 5 g/a): 0 (Growth-inhibition rate; 0 to 15%)
- Herbicidal effects Eleocharis kuroguwai (Eleocharis kuroguwai; second compound alone 30 g/a): 2 (Growth inhibition rate; 36 to 55%)
- Herbicidal effects Barnyard grass ([2]; second compound alone 5 g/a): 3 (Growth inhibition rate; 56 to 75%)
- Herbicidal effects Barnyard grass ([2]; second compound alone 30 g/a): 5 (Growth inhibition rate; 96 to 100%)
- Herbicidal effects Sagittaria pygmaea (Sagittaria pygmaea; second compound alone 5 g/a): 4 (Growth inhibition rate; 7.6 to 95%)
- Herbicidal effects Sagittaria pygmaea (Sagittaria pygmaea; second compound alone 30 g/a): 5 (Growth inhibition rate; 96 to 100%)
- Herbicidal effects Broad leaf ([3]; second compound alone 5 g/a): 5 (Growth inhibition rate; 96 to 100%)
- Herbicidal effects Broad leaf ([3]; second compound alone 30 g/a): 5 (Growth inhibition rate; 96 to 100%)
- Herbicidal effects Cyperus serotinus (Cyperus serotinus [4]; second compound alone 5 g/a): 1 (Growth inhibition rate; 16 to 35%)
- Herbicidal effects Cyperus serotinus (Cyperus serotinus [4]; second compound alone 30 g/a): 4 (Growth inhibition rate; 7.6 to 95%)
- Herbicidal effects Scirpus joncoides (Scirpus joncoides [5]; second compound alone 5 g/a): 2 (Growth inhibition rate; 36 to 55%)
- Herbicidal effects Scirpus joncoides (Scirpus joncoides [5]; second compound alone 30 g/a): 4 (Growth inhibition rate; 7.6 to 95%)

SMILES: N#CC1CC1c1ccccc1Oc1nnc(Cl)cc1O (stereo not shown) [Compound No. 226, 2-{2-[(6-Chloro-4-hydroxy-3-pyridazinyl)oxy]phenyl}-cyclopropanecarbonitrile]
- melting point: 203 to 207 °C
- Crop injury against transplanted rice [1, 11]: 0 (Growth-inhibition rate; 0 to 15%)
- Crop injury against transplanted rice [1, 12]: 0 (Growth-inhibition rate; 0 to 15%)
- Herbicidal effects Eleocharis kuroguwai (Eleocharis kuroguwai; [11]): 1 (Growth inhibition rate; 16 to 35%)
- Herbicidal effects Eleocharis kuroguwai (Eleocharis kuroguwai; [12]): 2 (Growth inhibition rate; 36 to 55%)
- Herbicidal effects Barnyard grass [2, 11]: 3 (Growth inhibition rate; 56 to 75%)
- Herbicidal effects Barnyard grass [2, 12]: 3 (Growth inhibition rate; 56 to 75%)
- Herbicidal effects Sagittaria pygmaea (Sagittaria pygmaea; [11]): 5 (Growth inhibition rate; 96 to 100%)
- Herbicidal effects Sagittaria pygmaea (Sagittaria pygmaea; [12]): 5 (Growth inhibition rate; 96 to 100%)
- Herbicidal effects Broad leaf [3, 11]: 5 (Growth inhibition rate; 96 to 100%)
- Herbicidal effects Broad leaf [3, 12]: 5 (Growth inhibition rate; 96 to 100%)
- Herbicidal effects Cyperus serotinus (Cyperus serotinus [4]; [11]): 5 (Growth inhibition rate; 96 to 100%)
- Herbicidal effects Cyperus serotinus (Cyperus serotinus [4]; [12]): 5 (Growth inhibition rate; 96 to 100%)
- Herbicidal effects Scirpus joncoides (Scirpus joncoides [5]; [11]): 4 (Growth inhibition rate; 7.6 to 95%)
- Herbicidal effects Scirpus joncoides (Scirpus joncoides [5]; [12]): 5 (Growth inhibition rate; 96 to 100%)

SMILES: Cc1ccccc1Oc1nnc(Cl)cc1O [Example 1]
- Crop injury against transplanted rice ([6]; chemical dosage 12.5 g/a): 0 (Growth inhibition rate; 0 to 10%)
- Crop injury against transplanted rice ([6]; chemical dosage 25 g/a): 0 (Growth inhibition rate; 0 to 10%)
- Crop injury against transplanted rice [1, 11]: 0 (Growth-inhibition rate; 0 to 15%)
- Crop injury against transplanted rice [1, 12]: 0 (Growth-inhibition rate; 0 to 15%)
- Herbicidal effects Eleocharis kuroguwai (Eleocharis kuroguwai; [11]): 0 (Growth-inhibition rate; 0 to 15%)
- Herbicidal effects Eleocharis kuroguwai (Eleocharis kuroguwai; [12]): 0 (Growth-inhibition rate; 0 to 15%)
- Herbicidal effects Barnyard grass [2, 11]: 2 (Growth inhibition rate; 36 to 55%)
- Herbicidal effects Barnyard grass [2, 12]: 4 (Growth inhibition rate; 7.6 to 95%)
- Herbicidal effects Sagittaria pygmaea (Sagittaria pygmaea; [11]): 4 (Growth inhibition rate; 7.6 to 95%)
- Herbicidal effects Sagittaria pygmaea (Sagittaria pygmaea; [12]): 4 (Growth inhibition rate; 7.6 to 95%)
- Herbicidal effects Broad leaf [3, 11]: 3 (Growth inhibition rate; 56 to 75%)
- Herbicidal effects Broad leaf [3, 12]: 4 (Growth inhibition rate; 7.6 to 95%)
- Herbicidal effects Cyperus serotinus (Cyperus serotinus [4]; [11]): 4 (Growth inhibition rate; 7.6 to 95%)
- Herbicidal effects Cyperus serotinus (Cyperus serotinus [4]; [12]): 5 (Growth inhibition rate; 96 to 100%)
- Herbicidal effects Scirpus joncoides (Scirpus joncoides [5]; [11]): 2 (Growth inhibition rate; 36 to 55%)
- Herbicidal effects Scirpus joncoides (Scirpus joncoides [5]; [12]): 4 (Growth inhibition rate; 7.6 to 95%)
- Herbicidal effects Broad leaf ([7]; chemical dosage 12.5 g/a): 5 (Growth inhibition rate; 91 to 100%)
- Herbicidal effects Broad leaf ([7]; chemical dosage 25 g/a): 5 (Growth inhibition rate; 91 to 100%)
- Herbicidal effects Barnyard grass ([8]; chemical dosage 12.5 g/a): 4 (Growth inhibition rate; 71 to 90%)
- Herbicidal effects Barnyard grass ([8]; chemical dosage 25 g/a): 5 (Growth inhibition rate; 91 to 100%)
- Herbicidal effects Cyperus serotinus (Cyperus serotinus [9]; chemical dosage 12.5 g/a): 5 (Growth inhibition rate; 91 to 100%)
- Herbicidal effects Cyperus serotinus (Cyperus serotinus [9]; chemical dosage 25 g/a): 5 (Growth inhibition rate; 91 to 100%)
- Herbicidal effects Scirpus joncoides (Scirpus joncoides [10]; chemical dosage 12.5 g/a): 5 (Growth inhibition rate; 91 to 100%)
- Herbicidal effects Scirpus joncoides (Scirpus joncoides [10]; chemical dosage 25 g/a): 5 (Growth inhibition rate; 91 to 100%)

SMILES: O=[N+]([O-])c1ccc(S(=O)(=O)Oc2cc(Cl)nnc2Oc2ccccc2C2CC2)cc1 [Example 394]
- Crop injury against transplanted rice ([6]; chemical dosage 10 g/a): 0 (Growth inhibition rate; 0 to 10%)
- Crop injury against transplanted rice ([6]; chemical dosage 20 g/a): 0 (Growth inhibition rate; 0 to 10%)
- Herbicidal effects Broad leaf ([7]; chemical dosage 10 g/a): 5 (Growth inhibition rate; 91 to 100%)
- Herbicidal effects Broad leaf ([7]; chemical dosage 20 g/a): 5 (Growth inhibition rate; 91 to 100%)
- Herbicidal effects Barnyard grass ([8]; chemical dosage 10 g/a): 2 (Growth inhibition rate; 31 to 50%)
- Herbicidal effects Barnyard grass ([8]; chemical dosage 20 g/a): 3 (Growth inhibition rate; 51 to 70%)
- Herbicidal effects Cyperus serotinus (Cyperus serotinus [9]; chemical dosage 10 g/a): 5 (Growth inhibition rate; 91 to 100%)
- Herbicidal effects Cyperus serotinus (Cyperus serotinus [9]; chemical dosage 20 g/a): 5 (Growth inhibition rate; 91 to 100%)
- Herbicidal effects Scirpus joncoides (Scirpus joncoides [10]; chemical dosage 10 g/a): 4 (Growth inhibition rate; 71 to 90%)
- Herbicidal effects Scirpus joncoides (Scirpus joncoides [10]; chemical dosage 20 g/a): 5 (Growth inhibition rate; 91 to 100%)
